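48-hour exposure; five concentrations; linearly interpolated endpoints. GI50 = concentration required for 50% inhibition of growth. TGI is the concentration that stops growth completely.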
Legend:
Test in all cases: inhibition of tumour cell growth, NCI panel, 48 h
[1] = test system: LOX IMVI melanoma
[2] = test system: MDA-MB-231 breast
[3] = test system: SF-268 CNS
[4] = test system: KM12 colon
[5] = test system: HCT-15 colon
[6] = test system: NCI-H460 lung
[7] = test system: UACC-257 melanoma
[8] = test system: COLO 205 colon
[9] = test system: MCF7 breast
[10] = test system: HS 578T breast
[11] = test system: OVCAR-8 ovarian
[12] = test system: A498 renal
[13] = test system: OVCAR-3 ovarian
[14] = test system: NCI-H23 lung
[15] = test system: SK-OV-3 ovarian
[16] = test system: NCI-H522 lung
[17] = test system: SK-MEL-5 melanoma
[18] = test system: SK-MEL-28 melanoma
[19] = test system: U251 CNS
[20] = test system: ACHN renal
[21] = test system: RXF 393 renal
[22] = test system: EKVX NSCLC
[23] = test system: A549 NSCLC
[24] = test system: K-562 leukemia
[25] = test system: SW-620 colon
[26] = test system: RPMI-8226 leukemia
[27] = test system: NCI/ADR-RES ovarian
[28] = test system: DU-145 prostate
[29] = test system: OVCAR-5 ovarian
[30] = test system: IGROV1 ovarian
[31] = test system: SR leukemia
[32] = test system: SK-MEL-2 melanoma
[33] = test system: UACC-62 melanoma
[34] = test system: MDA-MB-435
[35] = test system: BT-549 breast
[36] = test system: SF-295 CNS
[37] = test system: SF-539 CNS
[38] = test system: CAKI-1 renal
[39] = test system: NCI-H226 lung
[40] = test system: OVCAR-4 ovarian
[41] = test system: SNB-19 CNS
[42] = test system: MALME-3M melanoma
[43] = test system: 786-0 renal
[44] = test system: MOLT-4 leukemia
[45] = test system: PC-3 prostate
[46] = test system: SNB-75 CNS
[47] = test system: T-47D breast
[48] = test system: HOP-92 NSCLC
[49] = test system: HCC-2998 colon
[50] = test system: HOP-62 NSCLC
[51] = test system: CCRF-CEM leukemia
[52] = test system: HL-60(TB) leukemia
[53] = test system: SN12C renal
[54] = test system: TK-10 renal
[55] = test system: HT29 colon
[56] = test system: UO-31 renal

COc1cc2c3c(n(CCCCOC(=O)C(F)(F)F)c(=O)c2cc1OC)-c1cc2c(cc1C3=O)OCO2 was tested, and the GI50 [1] was over 100 µM, the TGI [1] was over 100 µM and the GI50 [2] was 31.9 µM. It also gave a TGI [2] of over 82.2 µM, a GI50 [3] of over 100 µM and a TGI [3] of over 100 µM. It also gave a GI50 [4] of over 100 µM, a TGI [4] of over 100 µM and a GI50 [5] of over 100 µM. The TGI [5] was over 100 µM, the TGI [6] was over 100 µM and the GI50 [7] was over 100 µM. The TGI [7] was over 100 µM, the GI50 [8] was over 100 µM and the TGI [8] was over 100 µM. It also gave a GI50 [9] of over 48.8 µM, a TGI [9] of over 100 µM and a GI50 [10] of over 93.1 µM. The TGI [10] was over 100 µM, the GI50 [11] was over 52.6 µM and the TGI [11] was over 100 µM. For the same compound, the GI50 [12] was over 44.4 µM, the TGI [12] was over 100 µM and the GI50 [13] was over 89.8 µM. For the same compound, the TGI [13] was over 100 µM, the GI50 [14] was over 100 µM and the TGI [14] was over 100 µM. It also gave a GI50 [15] of over 100 µM, a TGI [15] of over 100 µM and a TGI [16] of over 100 µM. For the same compound, the GI50 [17] was over 100 µM, the TGI [17] was over 100 µM and the GI50 [18] was over 100 µM. It also gave a TGI [18] of over 100 µM, a GI50 [19] of over 38.8 µM and a TGI [19] of over 100 µM. It also gave a GI50 [20] of over 48.3 µM, a TGI [20] of over 100 µM and a GI50 [21] of over 100 µM. For the same compound, the TGI [21] was over 100 µM, the GI50 [22] was over 100 µM and the TGI [22] was over 100 µM. The GI50 [23] was over 100 µM, the TGI [23] was over 100 µM and the GI50 [24] was over 50.4 µM. For the same compound, the TGI [24] was over 100 µM, the GI50 [25] was over 100 µM and the TGI [25] was over 100 µM. The GI50 [26] was over 20.4 µM, the TGI [26] was over 100 µM and the GI50 [27] was over 100 µM. The TGI [27] was over 100 µM, the GI50 [28] was over 80 µM and the TGI [28] was over 100 µM. The GI50 [29] was over 100 µM, the TGI [29] was over 100 µM and the GI50 [30] was over 26.3 µM. The TGI [30] was over 100 µM, the GI50 [31] was 0.589 µM and the TGI [31] was 13.4 µM. It also gave a GI50 [32] of over 100 µM, a TGI [32] of over 100 µM and a GI50 [33] of over 100 µM. For the same compound, the TGI [33] was over 100 µM, the GI50 [34] was over 100 µM and the TGI [34] was over 100 µM. For the same compound, the GI50 [35] was over 100 µM, the TGI [35] was over 100 µM and the GI50 [36] was over 41.7 µM. The TGI [36] was over 100 µM, the GI50 [37] was over 100 µM and the TGI [37] was over 100 µM. It also gave a GI50 [38] of over 21.8 µM, a TGI [38] of over 100 µM and a GI50 [39] of 98.6 µM. The TGI [39] was over 100 µM, the GI50 [40] was over 100 µM and the TGI [40] was over 100 µM. For the same compound, the GI50 [41] was over 100 µM, the TGI [41] was over 100 µM and the GI50 [42] was over 100 µM. For the same compound, the TGI [42] was over 100 µM, the GI50 [43] was 0.982 µM and the TGI [43] was 7.65 µM. The GI50 [44] was 10.1 µM, the TGI [44] was over 77.3 µM and the GI50 [45] was over 100 µM. For the same compound, the TGI [45] was over 100 µM, the GI50 [46] was over 86.8 µM and the TGI [46] was over 100 µM. For the same compound, the GI50 [47] was over 100 µM, the TGI [47] was over 100 µM and the GI50 [48] was over 82.9 µM. The TGI [48] was over 100 µM, the GI50 [49] was over 100 µM and the TGI [49] was over 100 µM. The GI50 [50] was 10.4 µM, the GI50 [51] was 5.01 µM and the TGI [51] was over 100 µM. The GI50 [52] was over 100 µM, the TGI [52] was over 100 µM and the GI50 [53] was over 93.9 µM. It also gave a TGI [53] of over 100 µM, a GI50 [54] of over 100 µM and a TGI [54] of over 100 µM. For the same compound, the GI50 [55] was over 100 µM, the TGI [55] was over 100 µM and the GI50 [56] was over 100 µM. It also gave a TGI [56] of over 100 µM.
